Data set [1] deals with T1, Prostaglandin G/H synthase 1 (Ovis aries, UniProt P05979).
T1 sequence (P05979 whole entry): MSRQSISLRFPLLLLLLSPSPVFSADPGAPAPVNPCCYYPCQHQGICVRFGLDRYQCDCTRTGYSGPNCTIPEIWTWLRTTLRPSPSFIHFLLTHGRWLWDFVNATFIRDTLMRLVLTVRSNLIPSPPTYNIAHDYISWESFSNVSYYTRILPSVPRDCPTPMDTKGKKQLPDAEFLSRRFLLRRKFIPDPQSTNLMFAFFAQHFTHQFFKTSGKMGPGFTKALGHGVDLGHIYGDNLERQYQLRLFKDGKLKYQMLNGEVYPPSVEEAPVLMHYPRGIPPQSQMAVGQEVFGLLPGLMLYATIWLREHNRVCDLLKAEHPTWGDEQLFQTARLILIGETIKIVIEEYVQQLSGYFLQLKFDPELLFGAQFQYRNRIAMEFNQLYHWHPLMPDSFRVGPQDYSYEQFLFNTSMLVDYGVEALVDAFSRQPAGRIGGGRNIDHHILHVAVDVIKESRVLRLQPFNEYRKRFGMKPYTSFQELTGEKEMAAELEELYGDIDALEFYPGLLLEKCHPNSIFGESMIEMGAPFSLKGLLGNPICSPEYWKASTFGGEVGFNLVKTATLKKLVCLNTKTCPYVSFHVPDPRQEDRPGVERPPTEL
Description: Inhibition of ovine COX-1

The target in data set [2] is T2, Prostaglandin G/H synthase 2 (Homo sapiens, UniProt P35354).
T2 sequence (P35354 whole entry): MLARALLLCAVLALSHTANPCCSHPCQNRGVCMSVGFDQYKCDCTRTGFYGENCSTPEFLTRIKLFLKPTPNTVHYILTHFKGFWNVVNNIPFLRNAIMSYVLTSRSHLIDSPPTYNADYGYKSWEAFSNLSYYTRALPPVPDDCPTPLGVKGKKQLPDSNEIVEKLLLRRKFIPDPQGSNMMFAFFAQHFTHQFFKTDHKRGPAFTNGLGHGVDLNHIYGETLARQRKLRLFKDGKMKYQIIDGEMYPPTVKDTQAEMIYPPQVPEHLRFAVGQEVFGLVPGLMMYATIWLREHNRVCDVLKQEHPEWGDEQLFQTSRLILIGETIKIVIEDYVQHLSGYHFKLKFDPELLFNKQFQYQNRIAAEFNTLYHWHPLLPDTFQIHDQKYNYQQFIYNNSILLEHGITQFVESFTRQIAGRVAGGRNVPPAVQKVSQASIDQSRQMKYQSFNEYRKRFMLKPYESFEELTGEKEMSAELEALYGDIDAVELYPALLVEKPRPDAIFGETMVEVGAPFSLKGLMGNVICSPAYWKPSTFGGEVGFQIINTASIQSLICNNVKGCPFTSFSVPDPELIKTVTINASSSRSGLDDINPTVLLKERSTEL

The target of data set [3] is T1, Prostaglandin G/H synthase 1. The source holds these as a separate data set.
Description: Inhibition of ovine COX-1 by colorimetric assay
The target of data set [4] is T2, Prostaglandin G/H synthase 2. The source holds these as a separate data set.
Description: Inhibition of human COX-2 by colorimetric assay
Data set [5] shares this target. This is another data set of the same source.
Description: Inhibition of recombinant human COX-2 measured after 5 mins by absorbance based analysis
Data set [6] concerns Platelet. The data set is described as follows: cells. The format is functional, cell-based. The following applies: Homo sapiens, 2 min.
Description: Antiplatelet activity in human platelets assessed as inhibition of arachidonic acid-induced platelet aggregation measured after 2 mins by turbidimetric analysis
The nature of data set [7]: in vitro. The settings on record: chlorocebus sabaeus, vero.
Description: Cytotoxicity against African green monkey Vero cells assessed as cell viability at 100 uM measured after 24 hrs by MTT assay relative to control
Data set [8] in a line: in vitro. The following applies: human, erythrocyte.
Description: Hemolytic activity in human red blood cells assessed as hemolysis at 100 uM measured after 3 hrs by microplate reader assay relative to control
In data set [9] the target is T1, Prostaglandin G/H synthase 1. The source holds these as a separate data set.
Description: Inhibition of ovine COX-1 measured after 5 mins by absorbance based analysis

The term IC50 denotes the concentration needed to halve the response being measured. The low end stands for greater potency in that assay, the high end for weaker potency in that assay. `CCc1onc(-c2ccccc2)c1-c1ccccc1`: the values for the IC50 in [1] and in data set [2] were 0.05 µM and over 1.49 µM, respectively.
Consider `Cc1onc(-c2ccc(Cl)o2)c1-c1ccccc1`, for which the IC50 in data set [2] is over 100 µM.
In the case of `Cc1onc(-c2ccccc2)c1-c1ccccc1`, the IC50 in [1] was 0.09 µM.
For `Cc1onc(-c2ccc(OCc3ccccc3)cc2)c1-c1ccc(OCc2ccccc2)cc1`, the IC50 in data set [3] and in [4] was over 50 µM in each case.
On to `CCCCOc1ccc(-c2c(-c3ccc(OC)cc3)noc2C)cc1`, for which the IC50 in [3] and in data set [4] was over 50 µM in each case.
In [5], `C=CCc1cccc(-c2nc(-c3ccccc3Cl)c(-c3ccccc3Cl)[nH]2)c1OC(=O)COC` showed an IC50 of over 100 µM.
For `O=C(O)Cc1onc(-c2ccc(OCc3ccccc3)cc2)c1-c1ccc(OCc2ccccc2)cc1`, the IC50 in [3] and in data set [4] was over 50 µM each time.
With `O=C(O)Cc1onc(-c2ccc(Oc3ccccc3)cc2)c1-c1ccc(Oc2ccccc2)cc1`, the IC50 in data set [3] and in data set [4] was over 50 µM each time.
The viability is a per cent measure of how many cells are alive, often set against a control. As for `CCCCOc1ccc(-c2noc(CC(=O)O)c2-c2ccc(OCCCC)cc2)cc1`, the IC50 is 0.053 µM in data set [3], over 50 µM in data set [4] and over 100 µM in [6]. The viability at 24 h, 100 µM in [7] was over 70%. The hemolysis at 3 h, 100 µM in [8] came out at 0%.
As to `CCCCOc1ccc(-c2noc(C)c2-c2ccc(OCCCC)cc2)cc1`, the IC50 in data set [3] and in [4] was over 50 µM in each case.
For `CCOc1ccc(-c2noc(C)c2-c2ccc(OCC)cc2)cc1`, the values for the IC50 in data set [3], in data set [4] and in data set [6] were 0.23 µM, over 50 µM and 1 µM, respectively. Further, the viability at 24 h, 100 µM in data set [7] is over 70%. Moreover, the hemolysis at 3 h, 100 µM in [8] stood at 0%.
As for `CCCOc1ccc(-c2noc(C)c2-c2ccc(OCCC)cc2)cc1`, the IC50 in data set [3] and in data set [4] was over 50 µM each time.
As to `Cc1onc(-c2ccc(OC(C)(C)C)cc2)c1-c1ccc(OC(C)(C)C)cc1`, the IC50 in data set [3] and in data set [4] was over 50 µM in each case.
As to `CCCOc1ccc(-c2c(-c3ccc(OC)cc3)noc2C)cc1`, the IC50 in data set [3] is 1.3 µM; in data set [4], over 50 µM. The compound also came in with a hemolysis at 3 h, 100 µM in [8] of 0%.
Consider `CCOc1ccc(-c2noc(CC(=O)O)c2-c2ccc(OCC)cc2)cc1`, for which the IC50 in data set [3] was 0.12 µM; in data set [4], over 50 µM; in [6] it was 0.7 µM. In addition, in data set [7], the viability at 24 h, 100 µM was over 70%. For the same compound, the hemolysis at 3 h, 100 µM in data set [8] came to 0%.
Consider `CCOc1ccc(-c2c(-c3ccc(OC)cc3)noc2CC(=O)O)cc1`, for which the IC50 in [3] was 0.12 µM; in data set [4], over 50 µM; in data set [6] it was 29.5 µM. Moreover, in data set [7], the viability at 24 h, 100 µM was over 70%. Further, the hemolysis at 3 h, 100 µM in data set [8] was found to be 0%.
Take `CCCOc1ccc(-c2c(-c3ccc(OC)cc3)noc2CC(=O)O)cc1`: the IC50 in data set [3] worked out at 0.079 µM; in data set [4], 6.9 µM; in data set [6] it was 72.1 µM. The same compound gave a viability at 24 h, 100 µM in [7] of over 70%. In data set [8], the hemolysis at 3 h, 100 µM was determined as 0%.
`CCCCOc1ccc(-c2c(-c3ccc(OC)cc3)noc2CC(=O)O)cc1`: the figures for the IC50 in [3] and in [4] were 0.32 µM and 0.45 µM, respectively.
For `Cc1onc(-c2ccc(Oc3ccccc3)cc2)c1-c1ccc(Oc2ccccc2)cc1`, in that order: over 50 µM and over 50 µM.
On to `C=CCc1cccc(-c2nc(-c3ccccc3Cl)c(-c3ccccc3Cl)[nH]2)c1OC(C)=O`, for which the IC50 in data set [5] and in [9] was over 100 µM in each case.
Take `CCOc1ccc(-c2c(-c3ccc(OC)cc3)noc2C)cc1`: the results for the IC50 in data set [3], in data set [4] and in data set [6] were 0.046 µM, over 50 µM and 2.5 µM, respectively. The viability at 24 h, 100 µM in [7] was determined as 64%.
For `CCOc1ccc(N)cc1C(=O)Nc1cccc(C(F)(F)F)c1`, the IC50 in data set [1] was 3.2 µM; in [2] it was over 100 µM.
On to `COc1ccc(-c2noc(C)c2-c2ccc(OCc3ccccc3)cc2)cc1`, for which the IC50 in data set [3] and in [4] was over 50 µM throughout.
In the case of `COc1ccc(-c2noc(CC(=O)O)c2-c2ccc(OC(C)(C)C)cc2)cc1`, the IC50 in [3] and in data set [4] was over 50 µM throughout.
For the compound `COc1ccc(-c2noc(CC(=O)O)c2-c2ccc(OCc3ccccc3)cc2)cc1`, the IC50 in [3] is 0.45 µM; in data set [4], over 50 µM; in data set [6], over 100 µM. This compound also came in with a viability at 24 h, 100 µM in data set [7] of over 70%. This compound also came in with a hemolysis at 3 h, 100 µM in data set [8] of 0%.
Turning to `COc1ccc(-c2noc(C)c2-c2ccc(Oc3ccccc3)cc2)cc1`, the IC50 in data set [3] and in data set [4] was over 50 µM in each case.
On to `CCCOc1ccc(-c2noc(CC(=O)O)c2-c2ccc(OCCC)cc2)cc1`, for which the IC50 in data set [3] is over 50 µM; in [4], 3.6 µM.
For `CC(C)(C)Oc1ccc(-c2noc(CC(=O)O)c2-c2ccc(OC(C)(C)C)cc2)cc1`, in that order: over 50 µM and over 50 µM.
With `COc1ccc(-c2noc(C)c2-c2ccc(OC(C)(C)C)cc2)cc1`, the IC50 in [3] and in [4] was over 50 µM each time.
As for `COc1ccc(-c2noc(CC(=O)O)c2-c2ccc(Oc3ccccc3)cc2)cc1`, the IC50 in data set [3] and in data set [4] was over 50 µM in each case.
`CC(=O)Oc1ccccc1C(=O)O` [ASPIRIN] had an IC50 in data set [6] of 36.2 µM.
On to `COc1ccc(-c2nc(C(=O)N3CCN(C)CC3)sc2-c2ccc(OC)cc2)cc1` [FR-122047], for which the IC50 in data set [1] is 0.028 µM.

These data come from ChEMBL document CHEMBL5543077, “A further pocket or conformational plasticity by mapping COX-1 catalytic site through modified-mofezolac structure-inhibitory activity relationships and their antiplatelet behavior” (Eur J Med Chem, 2024).
